The target in test [1] is T1, CCR1 (Homo sapiens, UniProt P32246).
T1 sequence (P32246 1-355): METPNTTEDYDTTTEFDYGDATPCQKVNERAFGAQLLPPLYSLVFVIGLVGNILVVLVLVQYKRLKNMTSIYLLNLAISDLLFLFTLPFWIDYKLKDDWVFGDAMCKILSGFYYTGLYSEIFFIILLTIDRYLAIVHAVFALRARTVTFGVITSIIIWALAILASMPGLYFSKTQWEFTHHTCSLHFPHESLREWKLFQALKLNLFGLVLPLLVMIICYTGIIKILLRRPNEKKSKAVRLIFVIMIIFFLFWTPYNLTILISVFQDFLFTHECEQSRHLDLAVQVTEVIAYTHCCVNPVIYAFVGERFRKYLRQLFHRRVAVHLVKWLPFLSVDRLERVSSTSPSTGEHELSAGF
Description: Membrane-based NanoBRET competition assay with 12 (2000 nM) and CCR1_Nluc membranes. Type of test: binding. On the set-up: Promega pNLF1-C (Nluc) #CCR010TN00; host or cells: HEK293T, transient (PEI). Conditions: for Ki: read-out: Ki, CCR1 (converted).

Another test addresses T2, CCR2 (Homo sapiens, UniProt P41597).
T2 construct: host or cells: HEK293T, transient
T2 sequence (P41597 1-360 isoform P41597-2): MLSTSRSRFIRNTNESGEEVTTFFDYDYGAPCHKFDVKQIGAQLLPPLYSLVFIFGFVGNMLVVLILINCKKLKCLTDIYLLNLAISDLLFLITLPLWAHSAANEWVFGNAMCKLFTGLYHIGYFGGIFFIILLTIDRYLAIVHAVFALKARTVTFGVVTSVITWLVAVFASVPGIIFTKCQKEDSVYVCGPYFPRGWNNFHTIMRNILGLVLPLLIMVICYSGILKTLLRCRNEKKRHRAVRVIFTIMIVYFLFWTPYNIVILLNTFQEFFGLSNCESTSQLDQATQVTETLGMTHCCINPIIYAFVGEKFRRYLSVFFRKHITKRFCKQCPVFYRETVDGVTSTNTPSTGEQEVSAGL
Description: NanoBRET competition binding assay for CCR2 based on 7, as previously reported. The following applies: for inhibition at 20 µM: compound at 20 μM. The text has this:
With 6 (Figure 1), a first lead structure for intracellular CCR1 inhibition that features an approximately 20-fold CCR1 over CCR2 selectivity was previously discovered by Ortiz Zacarías et al.([33]) In order to discover new chemotypes for selective CCR1 over CCR2 inhibition, we aimed to apply our novel NanoBRET competition binding assay for CCR1 in combination with our recently published CCR2 competition binding assay based on 7.[47] In our first attempt, we screened a small in-house library enriched with intracellular GPCR ligands and structural analogues thereof. […] Additionally, we tested 23 for binding to the IABS of CCR9 and CXCR2 using our recently reported NanoBRET-based assay platform (Figure 6C).[44],[45] In the course of these studies, we detected no binding of 23 to CCR9 and CXCR2 up to a concentration of 20 μM. Since cell lineage-dependent effects have been observed for CCR1 antagonists,[59] we studied the CCR1 over CCR2 selectivity of 23 by using a previously reported radioligand binding assay with membrane preparations from osteosarcoma (U2OS) cells stably expressing human CCR1 or CCR2.[33] […] In agreement with these previous reports,[33] we observed a reduction in CCR1 over CCR2 selectivity when moving from membrane-based binding assays to cell-based functional assays. […] To investigate a potential signaling bias of 23, we tested the compound by means of a NanoBiT miniGi recruitment assay.[60] […] Thus, this indicated no strong signaling bias of 23 (Figures S9E and S10C). To elucidate the SAR of this new scaffold for selective CCR1 over CCR2 inhibition, we synthesized several analogues of 23 (24–40) and tested them by means of our NanoBRET competition binding assays (Schemes S2 and S3, Table 1, Figures 6F and S11). First, we aimed to examine the impact of the stereochemistry of 23 on CCR1 affinity. As for the structurally related pyrrolone 4, large differences in CCR2 affinity between the eutomer 4-[R] and the distomer 4-[S] were described.[61] […] Furthermore, we identified the 4-hydroxyphenethyl group at position 1 of the pyrrolone scaffold as highly important for CCR1 affinity and selectivity. Its presence seems to block CCR2 binding, also when combined with the structural features of the high-affinity CCR2 ligand 5, as exemplified by 24. Especially the 4-hydroxy group at this moiety is essential for CCR1 binding (see 25 and 26). […] In position 5 of the pyrrolone, several aromatic and aliphatic substituents were tolerated (see 31–35).
In general terms: In BRET a luciferase serves as donor, and the signal depends on an acceptor being close.

Test [2] addresses T1, CCR1. Description: Live cell NanoBRET binding assay, HEK293T cells expressing CCR1_Nluc. On the set-up: Promega pNLF1-C (Nluc) #CCR010TN00; host or cells: HEK293T, transient (PEI). Conditions: for Ki: 12 (1000 nM), live HEK293T cells.
The mark [3] stands for this setting: 12 (2000 nM), CCR1_Nluc membranes.

This is an account of results in paper PMC11249626, “Fluorophore-Labeled Pyrrolones Targeting the Intracellular Allosteric Binding Site of the Chemokine Receptor CCR1” (ACS Pharmacology & Translational Science, 2024).

By Kd is commonly meant the concentration at which binding is half-saturated. Read a low Kd as a tighter complex.

SMILES strings stand for the structures. Like-named read-outs stand apart in the source and are kept apart here. Where only a bound is given, the exact number is not on record here.

Consider `O=C(C1=C(O)C(=O)N(CCc2ccc(O)cc2)C1c1ccc(F)cc1)c1ccccc1` (racemic) [compound 23], for which the Ki on CCR1 [1] (setting [3]) was 100 nM; on CCR1 [2] (read-out: Ki, live cells), 235 nM; at CCR1 [2] (read-out: pKi ± SEM, live cells (converted)) it was 229 nM. For the same compound, the “CCR1 over CCR2 binding selectivity” value at CCR1 [1] (NanoBRET competition binding assays) is recorded as “at least 172 fold”. Moreover, the inhibition at 20 µM on CCR2 (read-out: % inh. of tracer binding, CCR2) is -3%; on CCR2 (read-out: CCR2 inhibition class (n.i.)), less than 10%.
`CC(=O)C1=C(O)C(=O)N(c2ccc(Br)cc2F)C1C1CCCCC1` (centres unmarked) [compound 5, reference compound]: the “pKi ± SEM, CCR1” value on CCR1 [1] (setting [3]) was 7.96 ± 0.10. Moreover, the Ki is 11.8 nM at CCR1 [1] (setting [3]); 17.9 nM on CCR2 (NanoBRET competition, tracer 7); 24.2 nM at CCR1 [2] (read-out: Ki, live cells).
`CN(C)c1ccc2c(-c3cc(C(=O)NCCOCCOCc4cn(CCCC(=O)C5=C(O)C(=O)N(c6ccc(Br)cc6F)C5C5CCCCC5)nn4)ccc3C(=O)[O-])c3ccc(=[N+](C)C)cc-3oc2c1` (centres unmarked) [compound 12]: the Kd at CCR1 [2] (live HEK293T cells expressing CCR1_Nluc) was 505 ± 93 nM.
